Tests used:
[1] = molecular target: Glycine max GmPDH1 variant M219T/N222D (Glycine max, UniProt I1MYY4, M219T/N222D); experiment: ADH and PDH assay: steady-state kinetics and Tyr inhibition, GmPDH1 M219T/N222D; type: biochemical, Glycine max (soybean); settings: IC50^Tyr, 0.5 mM NADP^+
Experimental: (§1) Kinetic parameters of purified recombinant proteins were determined from assays conducted at varying arogenate (19.5 μM-5 mM) and prephenate concentration (23.4 μM-6 mM). Standard assay conditions were 25 mM HEPES pH 7.6, 50 mM KCl and 10% (v/v) ethylene glycol, and 0.5 mM NADP^+ with varied substrate, concentrations. Reactions were initiated by addition of enzyme and incubated at 37° C. monitored every 10-15 seconds at […] using a microplate reader (Tecan Genios). Kinetic parameters were determined by fitting initial velocity data to the Michaelis-Menten equation using the Origin software (OriginLab).
(§2) Arogenate was prepared by enzymatic conversion of prephenate (Sigma-Aldrich) as previously reported^56. For Tyr inhibition assays, Tyr was dissolved in a slightly basic solution (0.025 N NaOH) due to solubility issues, thus the concentration of lysis buffer was increased to 500 mM HEPES final concentration to buffer against the changes by addition of Tyr in the reaction. Reactions containing varying amounts of Tyr (10 μM-8 mM) with 0.5 mM NADP^+ and either 1 mM arogenate or 0.8 mM prephenate were monitored as above.

[2] = system: SynADH, Synechocystis sp. PCC 6803 arogenate dehydrogenase; settings: cited from earlier work
[3] = molecular target: Glycine max GmPDH1 variant M219T (Glycine max, UniProt I1MYY4, M219T); experiment: ADH and PDH assay: steady-state kinetics and Tyr inhibition, GmPDH1 M219T; type: biochemical, Glycine max (soybean); settings: 0-8 mM L-Tyr
Chain of Glycine max GmPDH1 variant M219T (I1MYY4 1-271 M219T): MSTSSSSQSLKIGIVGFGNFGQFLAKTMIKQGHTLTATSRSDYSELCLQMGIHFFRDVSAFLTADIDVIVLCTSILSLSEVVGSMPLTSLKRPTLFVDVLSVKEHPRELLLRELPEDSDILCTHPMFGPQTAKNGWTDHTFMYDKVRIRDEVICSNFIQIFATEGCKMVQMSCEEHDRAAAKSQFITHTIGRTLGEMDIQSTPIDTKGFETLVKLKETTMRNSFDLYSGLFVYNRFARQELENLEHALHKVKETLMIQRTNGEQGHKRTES
Experimental: as §1, §2

[4] = molecular target: T1, SolyncADH (Slycopersicum06g050630), tomato noncanonical arogenate dehydrogenase, wild type (Solanum lycopersicum, UniProt K4C5K7); experiment: ADH and PDH assay: steady-state kinetics and Tyr inhibition, SolyncADH wild type; type: biochemical
T1 construct: wild type
T1 sequence (K4C5K7 1-272): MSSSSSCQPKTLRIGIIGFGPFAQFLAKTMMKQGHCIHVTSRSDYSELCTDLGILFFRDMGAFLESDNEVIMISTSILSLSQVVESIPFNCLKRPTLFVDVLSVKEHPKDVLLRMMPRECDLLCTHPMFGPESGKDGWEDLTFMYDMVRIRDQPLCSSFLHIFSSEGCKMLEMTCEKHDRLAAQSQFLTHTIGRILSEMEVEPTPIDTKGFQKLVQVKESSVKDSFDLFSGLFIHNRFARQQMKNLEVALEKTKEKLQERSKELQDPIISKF
Experimental: as §1, §2

[5] = molecular target: T2, Glycine max GmncADH variant D218N (Glycine max, UniProt I1M7P5, D218N); experiment: ADH and PDH assay: steady-state kinetics and Tyr inhibition, GmncADH D218N; type: biochemical, Glycine max (soybean); settings: versus wild-type; ADH activity, 0-8 mM Tyr
T2 construct: D218N by site-directed mutagenesis
T2 sequence (I1M7P5 1-266 D218N): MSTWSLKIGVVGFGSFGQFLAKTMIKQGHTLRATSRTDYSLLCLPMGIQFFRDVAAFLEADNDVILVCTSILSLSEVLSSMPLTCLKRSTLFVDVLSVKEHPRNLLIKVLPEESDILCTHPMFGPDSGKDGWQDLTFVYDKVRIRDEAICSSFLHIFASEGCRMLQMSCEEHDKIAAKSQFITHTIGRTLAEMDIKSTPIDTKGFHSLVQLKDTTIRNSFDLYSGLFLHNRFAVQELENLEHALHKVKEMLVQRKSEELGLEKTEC
Experimental: as §1, §2

[6] = molecular target: T3, MtncADH (Mt5g083530), Medicago truncatula noncanonical arogenate dehydrogenase, wild type (Medicago truncatula, UniProt A0A217FAR3); experiment: ADH and PDH assay: steady-state kinetics and Tyr inhibition, MtncADH wild type; type: biochemical; settings: for IC50: IC50^Tyr, 0.5 mM NADP^+
T3 construct: wild type
T3 sequence (A0A217FAR3 1-266): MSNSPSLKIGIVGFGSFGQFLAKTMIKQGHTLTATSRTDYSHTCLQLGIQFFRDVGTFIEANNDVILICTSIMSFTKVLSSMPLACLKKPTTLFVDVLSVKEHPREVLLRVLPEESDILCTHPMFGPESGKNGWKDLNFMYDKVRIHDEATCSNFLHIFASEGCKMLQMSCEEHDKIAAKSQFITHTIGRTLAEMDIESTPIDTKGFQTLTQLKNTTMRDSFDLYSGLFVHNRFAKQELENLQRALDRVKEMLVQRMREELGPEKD
Experimental: as §1, §2

[7] = molecular target: T4, Glycine max GmPDH1 variant N222D, SEQ ID NO: 2 (Glycine max, UniProt I1MYY4, N222D); experiment: ADH and PDH assay: steady-state kinetics and Tyr inhibition, GmPDH1 N222D; type: biochemical, Glycine max (soybean); settings: IC50^Tyr, 0.5 mM NADP^+
T4 sequence (I1MYY4 1-271 N222D): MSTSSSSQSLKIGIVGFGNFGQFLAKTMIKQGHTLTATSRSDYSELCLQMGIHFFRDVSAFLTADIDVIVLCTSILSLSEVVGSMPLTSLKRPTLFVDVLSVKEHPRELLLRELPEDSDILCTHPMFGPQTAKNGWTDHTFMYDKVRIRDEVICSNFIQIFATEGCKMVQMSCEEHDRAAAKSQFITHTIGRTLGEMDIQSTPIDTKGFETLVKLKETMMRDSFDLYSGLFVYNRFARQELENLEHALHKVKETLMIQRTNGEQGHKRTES
Experimental: as §1, §2

[8] = molecular target: T5, Medicago truncatula MtPDH variant C220D, SEQ ID NO: 1 (Medicago truncatula, UniProt A0A0A0R205, C220D); experiment: ADH and PDH assay: steady-state kinetics and Tyr inhibition, MtPDH C220D; type: biochemical
T5 sequence (A0A0A0R205 1-268 C220D): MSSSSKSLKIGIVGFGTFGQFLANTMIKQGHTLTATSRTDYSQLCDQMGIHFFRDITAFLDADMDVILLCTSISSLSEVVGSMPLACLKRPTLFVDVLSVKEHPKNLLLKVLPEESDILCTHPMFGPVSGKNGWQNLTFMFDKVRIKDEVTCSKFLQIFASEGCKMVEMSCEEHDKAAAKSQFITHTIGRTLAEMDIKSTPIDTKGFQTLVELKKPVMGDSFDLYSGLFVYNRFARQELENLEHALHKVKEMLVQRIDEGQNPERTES
Experimental: as §1, §2

[9] = molecular target: Arabidopsis thaliana AtADH2 variant D241N, SEQ ID NO: 12 (Arabidopsis thaliana, UniProt Q9LMR3, D275N); experiment: Tyr inhibition of AtADH2 D241N; type: biochemical; settings: versus wild-type; ADH activity, 0-8 mM Tyr
Chain of Arabidopsis thaliana AtADH2 variant D241N, SEQ ID NO: 12 (Q9LMR3 37-358 D275N): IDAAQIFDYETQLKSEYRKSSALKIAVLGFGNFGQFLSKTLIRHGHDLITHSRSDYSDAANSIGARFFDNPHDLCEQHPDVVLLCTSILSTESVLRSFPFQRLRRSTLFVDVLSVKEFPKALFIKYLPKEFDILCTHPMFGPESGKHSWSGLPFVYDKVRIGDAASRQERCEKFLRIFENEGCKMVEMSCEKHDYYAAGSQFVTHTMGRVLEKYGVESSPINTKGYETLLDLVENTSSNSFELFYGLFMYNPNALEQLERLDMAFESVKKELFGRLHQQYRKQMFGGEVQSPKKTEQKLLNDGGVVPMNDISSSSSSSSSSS
Experimental: as §1, §2

[10] = molecular target: AtADH2 (At1g15710), Arabidopsis thaliana canonical arogenate dehydrogenase, wild type (Arabidopsis thaliana, UniProt Q9LMR3); experiment: Tyr inhibition of AtADH2 wild type; type: biochemical; settings: ADH activity, 0-8 mM L-Tyr
Chain of AtADH2 (At1g15710), Arabidopsis thaliana canonical arogenate dehydrogenase, wild type (Q9LMR3 37-358): as the sequence (Q9LMR3 37-358 D275N) above, with N239D counted along it
Experimental: as §1, §2

[11] = molecular target: Glycine max GmPDH1 variant N222A (Glycine max, UniProt I1MYY4, N222A); experiment: ADH and PDH assay: steady-state kinetics and Tyr inhibition, GmPDH1 N222A; type: biochemical, Glycine max (soybean); settings: 0-8 mM L-Tyr
Chain of Glycine max GmPDH1 variant N222A (I1MYY4 1-271 N222A): as the sequence (I1MYY4 1-271 M219T) above, with T219M, N222A counted along it
Experimental: as §1, §2

[12] = molecular target: T6, GmncADH (Gm14g05990), soybean (Glycine max) noncanonical arogenate dehydrogenase, wild type (Glycine max, UniProt I1M7P5); experiment: ADH and PDH assay: steady-state kinetics and Tyr inhibition, GmncADH wild type; type: biochemical
T6 construct: wild type
T6 sequence (I1M7P5 1-266): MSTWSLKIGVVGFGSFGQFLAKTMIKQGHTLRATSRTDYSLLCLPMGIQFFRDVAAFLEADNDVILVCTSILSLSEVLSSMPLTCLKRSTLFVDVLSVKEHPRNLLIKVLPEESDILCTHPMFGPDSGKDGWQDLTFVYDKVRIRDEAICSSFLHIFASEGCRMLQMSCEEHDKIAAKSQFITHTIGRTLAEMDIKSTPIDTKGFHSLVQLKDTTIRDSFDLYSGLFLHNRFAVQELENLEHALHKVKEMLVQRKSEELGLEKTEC
Experimental: as §1, §2

[13] = system: AaPDH, A. aeolicus prephenate dehydrogenase; settings: cited from earlier work
[14] = system: Peanut PDH/ADH (AipaensisVYE8T), Arachis ipaensis, wild type; experiment: ADH and PDH assay: steady-state kinetics and Tyr inhibition, peanut PDH/ADH; type: biochemical; settings: 0-8 mM L-Tyr
Experimental: as §1, §2

Chain of Glycine max GmPDH1 variant M219T/N222D (I1MYY4 1-271 M219T/N222D): as the sequence (I1MYY4 1-271 M219T) above, with N222D counted along it

SMILES: N[C@@H](Cc1ccc(O)cc1)C(=O)O [Tyr, L-Tyrosine]
- IC50 ([1]; substrate arogenate (1 mM)): 5.9 ± 0.5 mM
- IC50 ([1]; substrate prephenate (0.8 mM)): 11.1 ± 1.2 mM
- Tyr sensitivity [2]: Tyr insensitive
- inhibition by Tyr [3]: not inhibited by Tyr
- IC50 [4]: 12.8 mM
- sensitivity to Tyr inhibition [5]: significantly less sensitive to Tyr inhibition
- IC50 ([6]; substrate arogenate (1 mM)): 2.2 ± 0.5 mM
- IC50 ([6]; substrate prephenate (0.8 mM)): 0.6 ± 0.1 mM
- IC50 (Tyr), in words ([6]; sensitivity to Tyr): in the mM range
- IC50 ([7]; substrate arogenate (1 mM)): 4.7 ± 0.4 mM
- IC50 ([7]; substrate prephenate (0.8 mM)): 5.3 ± 0.4 mM
- IC50 [8]: 8.2 ± 0.9 mM
- sensitivity to Tyr inhibition [9]: significantly less sensitive to Tyr inhibition
- IC50 [10]: 0.038 mM
- inhibition by Tyr [11]: not inhibited by Tyr
- IC50 [12]: 15.5 ± 0.8 mM
- IC50 (Tyr), in words ([12]; sensitivity to Tyr): in the mM range
- Tyr sensitivity [13]: sensitive to Tyr
- Tyr inhibition [14]: insensitive to Tyr inhibition

From patent US12134788B2, “Engineered prephenate dehydrogenases and arogenate dehydrogenases and methods of using the same” (Wisconsin Alumni Research Foundation, priority 2017, dated 2024)
